From ChEMBL document CHEMBL3232938, “Design, synthesis, and biological evaluation of dihydroartemisinin-fluoroquinolone conjugates as a novel type of potential antitubercular agents” (2014)
≈ marks a conversion by molar mass, not a printed value.

How the values were obtained:
Format in all cases: functional
[1] = test system: Salmonella; experiment: Antibacterial activity against Salmonella assessed as growth inhibition after 7 days by microtiter plate assay; details: 168 h
[2] = test system: Salmonella; experiment: Antibacterial activity against Salmonella assessed as zone of inhibition at 2 ug/ml; details: read-out: DIZ
[3] = test system: Escherichia coli; experiment: Antibacterial activity against Escherichia coli assessed as growth inhibition after 7 days by microtiter plate assay; details: 168 h
[4] = test system: Pseudomonas aeruginosa; experiment: Antibacterial activity against Pseudomonas aeruginosa assessed as growth inhibition after 7 days by microtiter plate assay; details: 168 h
[5] = test system: Mycobacterium tuberculosis; experiment: Antibacterial activity against 0.5 ug/ml Mycobacterium tuberculosis H37Rv ATCC 27294 assessed as growth inhibition after 7 days by microtiter plate assay; details: H37Rv ATCC 27294, 168 h
[6] = test system: Staphylococcus aureus; experiment: Antibacterial activity against Staphylococcus aureus assessed as growth inhibition after 7 days by microtiter plate assay; details: 168 h
[7] = test system: Mycobacterium tuberculosis; experiment: Antibacterial activity against 1 ug/ml Mycobacterium tuberculosis H37Rv ATCC 27294 assessed as growth inhibition after 7 days by microtiter plate assay; details: H37Rv ATCC 27294, 168 h
[8] = test system: Staphylococcus aureus; experiment: Antibacterial activity against Staphylococcus aureus assessed as zone of inhibition at 2 ug/ml; details: read-out: DIZ
[9] = test system: Pseudomonas aeruginosa; experiment: Antibacterial activity against Pseudomonas aeruginosa assessed as zone of inhibition at 2 ug/ml; details: read-out: DIZ
[10] = test system: Escherichia coli; experiment: Antibacterial activity against Escherichia coli assessed as zone of inhibition at 2 ug/ml; details: read-out: DIZ
[11] = test system: Escherichia coli; experiment: Antibacterial activity against duck Escherichia coli assessed as growth inhibition after 7 days by microtiter plate assay; details: 168 h
[12] = test system: Escherichia coli; experiment: Antibacterial activity against duck Escherichia coli assessed as zone of inhibition at 2 ug/ml; details: read-out: DIZ
[13] = test system: Mycobacterium tuberculosis; experiment: Antibacterial activity against drug-sensitive 1 ug/ml Mycobacterium tuberculosis clinical isolate 821 assessed as growth inhibition after 7 days by microtiter plate assay; details: isolate 821, 168 h
[14] = test system: Mycobacterium tuberculosis; experiment: Antibacterial activity against drug-sensitive 1 ug/ml Mycobacterium tuberculosis clinical isolate 741 assessed as growth inhibition after 7 days by microtiter plate assay; details: isolate 741, 168 h
[15] = test system: Mycobacterium tuberculosis; experiment: Antibacterial activity against drug-sensitive 1 ug/ml Mycobacterium tuberculosis clinical isolate 758 assessed as growth inhibition after 7 days by microtiter plate assay; details: isolate 758, 168 h
[16] = test system: Mycobacterium tuberculosis; experiment: Antibacterial activity against drug-sensitive 1 ug/ml Mycobacterium tuberculosis clinical isolate 760 assessed as growth inhibition after 7 days by microtiter plate assay; details: isolate 760, 168 h
[17] = test system: Mycobacterium tuberculosis; experiment: Antibacterial activity against drug-sensitive 1 ug/ml Mycobacterium tuberculosis clinical isolate 753 assessed as growth inhibition after 7 days by microtiter plate assay; details: isolate 753, 168 h

C[C@H]1[C@@H](OC(=O)CCC(=O)NC2CCN(c3c(F)cc4c(=O)c(C(=O)O)cn(C5CC5)c4c3Cl)C2)O[C@@H]2O[C@@]3(C)CC[C@H]4[C@H](C)CC[C@@H]1[C@@]24OO3 (stereo partly specified)
MIC [1]: 16 µg/mL (≈ 21.9 µM) | zone of inhibition at 2 µg/mL [2]: 10 mm | MIC [3]: 8 µg/mL (≈ 10.9 µM) | MIC [4]: 16 µg/mL (≈ 21.9 µM) | MIC [5]: 1.37 µM (≈ 1 µg/mL) | MIC [6]: 8 µg/mL (≈ 10.9 µM) | MIC [7]: 2.73 µM (≈ 2 µg/mL) | zone of inhibition at 2 µg/mL [8]: < 5 mm | zone of inhibition at 2 µg/mL [9]: < 5 mm | zone of inhibition at 2 µg/mL [10]: 9 mm | MIC [11]: 16 µg/mL (≈ 21.9 µM) | zone of inhibition at 2 µg/mL [12]: < 5 mm

C[C@H]1[C@@H](OC(=O)CCC(=O)N2CCN(c3cc4c(cc3F)c(=O)c(C(=O)O)cn4C3CC3)CC2)O[C@@H]2O[C@@]3(C)CC[C@H]4[C@H](C)CC[C@@H]1[C@@]24OO3
MIC [1]: 16 µg/mL (≈ 22.9 µM) | zone of inhibition at 2 µg/mL [2]: < 5 mm | MIC [3]: 16 µg/mL (≈ 22.9 µM) | MIC [4]: 16 µg/mL (≈ 22.9 µM) | MIC [5]: 2.07 µM (≈ 1.44 µg/mL) | MIC [6]: 16 µg/mL (≈ 22.9 µM) | MIC [7]: 2.07 µM (≈ 1.44 µg/mL) | zone of inhibition at 2 µg/mL [8]: < 5 mm | zone of inhibition at 2 µg/mL [9]: < 5 mm | zone of inhibition at 2 µg/mL [10]: 9 mm | MIC [11]: 16 µg/mL (≈ 22.9 µM) | zone of inhibition at 2 µg/mL [12]: < 5 mm

CCn1cc(C(=O)O)c(=O)c2cc(F)c(N3CCN(C(=O)CCC(=O)O[C@H]4O[C@@H]5O[C@@]6(C)CC[C@H]7[C@H](C)CC[C@@H]([C@H]4C)[C@@]57OO6)CC3)cc21
MIC [1]: 16 µg/mL (≈ 23.3 µM) | zone of inhibition at 2 µg/mL [2]: < 5 mm | MIC [3]: 16 µg/mL (≈ 23.3 µM) | MIC [4]: 16 µg/mL (≈ 23.3 µM) | MIC [5]: > 5.83 µM | MIC [6]: 16 µg/mL (≈ 23.3 µM) | MIC [7]: > 5.83 µM | zone of inhibition at 2 µg/mL [8]: < 5 mm | zone of inhibition at 2 µg/mL [9]: < 5 mm | zone of inhibition at 2 µg/mL [10]: 6 mm | MIC [11]: 16 µg/mL (≈ 23.3 µM) | zone of inhibition at 2 µg/mL [12]: < 5 mm

C[C@H]1[C@@H](OC(=O)CCC(=O)N2CCN(c3cc4c(cc3F)c(=O)c(C(=O)O)cn4-c3ccc(F)cc3)CC2)O[C@@H]2O[C@@]3(C)CC[C@H]4[C@H](C)CC[C@@H]1[C@@]24OO3
MIC [1]: 16 µg/mL (≈ 21.3 µM) | zone of inhibition at 2 µg/mL [2]: < 5 mm | MIC [3]: 16 µg/mL (≈ 21.3 µM) | MIC [4]: 16 µg/mL (≈ 21.3 µM) | MIC [5]: > 5.32 µM | MIC [6]: 8 µg/mL (≈ 10.6 µM) | MIC [7]: > 5.32 µM | zone of inhibition at 2 µg/mL [8]: < 5 mm | zone of inhibition at 2 µg/mL [9]: < 5 mm | zone of inhibition at 2 µg/mL [10]: < 5 mm | MIC [11]: 8 µg/mL (≈ 10.6 µM) | zone of inhibition at 2 µg/mL [12]: < 5 mm

C[C@H]1[C@@H](OCCCNC2CCN(c3c(F)cc4c(=O)c(C(=O)O)cn(C5CC5)c4c3Cl)C2)O[C@@H]2O[C@@]3(C)CC[C@H]4[C@H](C)CC[C@@H]1[C@@]24OO3 (stereo partly specified)
MIC [13]: 1 µg/mL (≈ 1.45 µM) | MIC [14]: 0.125 µg/mL (≈ 0.181 µM) | MIC [15]: 0.125 µg/mL (≈ 0.181 µM) | MIC [1]: 16 µg/mL (≈ 23.2 µM) | zone of inhibition at 2 µg/mL [2]: 10 mm | MIC [3]: 8 µg/mL (≈ 11.6 µM) | MIC [4]: 8 µg/mL (≈ 11.6 µM) | MIC [16]: 0.125 µg/mL (≈ 0.181 µM) | MIC [5]: 0.181 µM (≈ 0.125 µg/mL) | MIC [6]: 16 µg/mL (≈ 23.2 µM) | MIC [7]: 0.181 µM (≈ 0.125 µg/mL) | zone of inhibition at 2 µg/mL [8]: < 5 mm | zone of inhibition at 2 µg/mL [9]: < 5 mm | zone of inhibition at 2 µg/mL [10]: 7 mm | MIC [11]: 8 µg/mL (≈ 11.6 µM) | MIC [17]: 0.125 µg/mL (≈ 0.181 µM) | zone of inhibition at 2 µg/mL [12]: < 5 mm

C[C@H]1[C@@H](OCCCN2CCN(c3cc4c(cc3F)c(=O)c(C(=O)O)cn4C3CC3)CC2)O[C@@H]2O[C@@]3(C)CC[C@H]4[C@H](C)CC[C@@H]1[C@@]24OO3
MIC [1]: 16 µg/mL (≈ 24.4 µM) | zone of inhibition at 2 µg/mL [2]: < 5 mm | MIC [3]: 16 µg/mL (≈ 24.4 µM) | MIC [4]: 16 µg/mL (≈ 24.4 µM) | MIC [5]: > 3.05 µM | MIC [6]: 8 µg/mL (≈ 12.2 µM) | MIC [7]: > 3.05 µM | zone of inhibition at 2 µg/mL [8]: < 5 mm | zone of inhibition at 2 µg/mL [9]: < 5 mm | zone of inhibition at 2 µg/mL [10]: < 5 mm | MIC [11]: 16 µg/mL (≈ 24.4 µM) | zone of inhibition at 2 µg/mL [12]: < 5 mm

CCn1cc(C(=O)O)c(=O)c2cc(F)c(N3CCN(CCCO[C@H]4O[C@@H]5O[C@@]6(C)CC[C@H]7[C@H](C)CC[C@@H]([C@H]4C)[C@@]57OO6)CC3)cc21
MIC [1]: 16 µg/mL (≈ 24.9 µM) | zone of inhibition at 2 µg/mL [2]: < 5 mm | MIC [3]: 16 µg/mL (≈ 24.9 µM) | MIC [4]: 16 µg/mL (≈ 24.9 µM) | MIC [5]: 6.21 µM (≈ 4 µg/mL) | MIC [6]: 8 µg/mL (≈ 12.4 µM) | MIC [7]: 6.21 µM (≈ 4 µg/mL) | zone of inhibition at 2 µg/mL [8]: < 5 mm | zone of inhibition at 2 µg/mL [9]: < 5 mm | zone of inhibition at 2 µg/mL [10]: < 5 mm | MIC [11]: 8 µg/mL (≈ 12.4 µM) | zone of inhibition at 2 µg/mL [12]: < 5 mm

C[C@H]1[C@@H](OCCCN2CCN(c3cc4c(cc3F)c(=O)c(C(=O)O)cn4-c3ccc(F)cc3)CC2)O[C@@H]2O[C@@]3(C)CC[C@H]4[C@H](C)CC[C@@H]1[C@@]24OO3
MIC [1]: 16 µg/mL (≈ 22.5 µM) | zone of inhibition at 2 µg/mL [2]: 10 mm | MIC [3]: 16 µg/mL (≈ 22.5 µM) | MIC [4]: 16 µg/mL (≈ 22.5 µM) | MIC [5]: > 5.64 µM | MIC [6]: 16 µg/mL (≈ 22.5 µM) | MIC [7]: > 5.64 µM | zone of inhibition at 2 µg/mL [8]: < 5 mm | zone of inhibition at 2 µg/mL [9]: < 5 mm | zone of inhibition at 2 µg/mL [10]: < 5 mm | MIC [11]: 4 µg/mL (≈ 5.64 µM) | zone of inhibition at 2 µg/mL [12]: < 5 mm
